Values of other authors in patent publication US10342765B2, “Therapeutic compositions comprising monoterpenes” (priority 2009, dated 2019).
Entries after “also recorded” stand apart in the source; their conditions may differ.

Columns and labels:
[1] = test system: systemic malignancies including breast, lung, pancreatic, melanomas
malignant gliomas = settings: patients with malignant gliomas; nasal inhalation
[2] = nasal inhalation; nasal inhaler four times daily

In the case of `C=C(C)[C@@H]1CC=C(CO)CC1` [POH, perillyl alcohol], the “effectiveness against systemic malignancies” value [1] is listed as “effective”, the “tumor size (radiographic)” value (malignant gliomas) is listed as “radiographic reduction in tumor size” and the tolerability in patients [2] is listed as “safely tolerated; also recorded: well tolerated, with minimal side effects”.
